Reference: patent publication US20230136075A1, “TREATMENT FOR SEPSIS-INDUCED ORGAN DYSFUNCTION” (The Florey Institute of Neuroscience and Mental Health, priority 2020, published 2023)

How the values were obtained:
[1] = test system: ovine sepsis induced by intravenous infusion of live E. coli; assay: Vitamin C dose response in ovine sepsis (Example 3); type: in vivo
Experimental: The inventors then sought to determine the minimum dose of intravenous vitamin C required to reverse the pathophysiological features of sepsis and acute kidney injury, using the ovine sepsis model described in Example 1. Surgical procedures and initiation of gram negative sepsis were as described in Example 1.
At 24 hours of sepsis, sheep were randomised into one of four groups (n=2 each): (i) sodium ascorbate treatment at 1 g/kg for 7 hours; (ii) sodium ascorbate treatment at 2 g/kg for 7 hours; (iii) sodium ascorbate treatment at 3 g/kg for 7 hours; or (iv) fluid-matched vehicle. Norepinephrine doses were titrated to achieve a target blood pressure (75-80 mm Hg). All sodium ascorbate doses were given as a bolus followed by a continuous infusion. The bolus doses for the 1, 2 and […] treatments were, respectively, 0.133, 0.267 and 0.4 g/kg (5.3, 10.7 and 16 g for a 40 kg sheep. Sodium ascorbate was diluted in 1:1 ratio with 5% glucose prior to intravenous administration. At 31 hours of sepsis, animals were euthanised for tissue collection to facilitate molecular and histological investigations.

[2] = test system: patients with septic shock; assay: Randomised, double-blind, placebo-controlled trial of mega-dose vitamin C for septic shock (Example 4); type: in vivo; conditions: trial ongoing
Excerpt: A randomised, double-blind, placebo-controlled trial is being conducted to evaluate whether the administration of intravenous mega-dose vitamin C (60 g/day) increases urine output in patients with septic shock admitted to an intensive care unit (ICU).
Patients admitted to the Austin Hospital ICU with the primary diagnosis of septic shock defined according to the Sepsis-3 criteria are screened for eligibility. All the diagnostic criteria of septic shock (based on the SEPSIS-3 criteria) were to be fulfilled simultaneously within the last 24 hours, and vasopressors infused continuously at enrolment. Definition of sepsis is that of suspected or documented infection and an acute increase of ≥2 sequential organ failure assessment (SOFA) points consequent to the infection (a proxy of organ dysfunction). Definition of septic shock are sepsis and need for vasopressor therapy to keep mean arterial pressure (MAP) >65 mmHg for >2 hours and lactate >2 mmol/L, despite adequate fluid resuscitation.
All eligible patients with septic shock are randomised to receive either: • (i) Mega-dose Vitamin C intravenous infusion (sodium ascorbate 30 grams [100 ml] diluted with 150 ml of 5% dextrose infused intravenously over 1 hour followed by sodium ascorbate 30 grams [100 ml] diluted with 150 ml of 5% dextrose infused intravenously over 5 hours); or • (ii) Placebo intravenous infusion administered once (250 ml of 5% dextrose infused intravenously over 1 hour followed by 250 ml of 5% dextrose infused intravenously over 5 hours).
The study infusions are identical in appearance and are supplied in identical 250m1 5% dextrose bags prepared by ICU staff.
Vitamin C levels and arterial blood gas samples are measured at five time points (before loading infusion; after loading dose; 3 hours after the beginning of maintenance infusion; at the end of maintenance infusion; and, 24 hours following the beginning of the study infusion). A single urinary assessment is made of oxalate crystals obtained from testing a 24-hour collection of urine obtained at 24 hours following the beginning of the study infusion. Arterial blood gas samples are also measured to monitor for changes in serum sodium (Na+) and potassium (K+) levels at four time points (before loading infusion [baseline]; after loading dose; 3 hours after the beginning of maintenance infusion; and, at the end of maintenance infusion). The study infusion is stopped if the serum Na+ levels increases >10 mEq/L from the baseline value or absolute serum Na+ levels>160 mEq/L. Information is also collected on fluid balance, intravenous fluid therapy, use of vasopressor drugs and dosage, use of mechanical ventilation and renal replacement therapy and all biochemical and hematological and blood gas analysis variables as well as patient demographics, diagnosis, vital signs and illness severity score, ICU and hospital outcomes (e.g. admission and discharge dates as well as ICU and hospital survival status).
The primary efficacy outcome for this study is the cumulative urine output for 24 consecutive hours following the beginning of the study infusion.
Data analysis is performed on an intention-to-treat basis. Summary statistics are used to describe the clinical data and presented as mean±standard deviation, median with interquartile range (IQR) or percentages as appropriate. Chi-squared analysis with Fisher's exact test (as appropriate), and Student's t-test (Mann Whitney U test for non-normal distributions) are used to compare data between the active treatment group and the control group with statistical significance declared for probability values of less than 0.05. Analysis of the outcome of excluded patients due to other trials etc. is in accordance with CONSORT guidelines.

[3] = 1, 2 and 3 g/kg sodium ascorbate compared, n=2 each
[4] = 3 g/kg sodium ascorbate for 7 hours, n=2

O=C1O[C@H]([C@@H](O)CO)C([O-])=C1O.[Na+] [sodium ascorbate]
increase in urinary output [1, 3]: greatest in the 3 g/kg sodium ascorbate treatment group | normalisation of body temperature [1, 3]: strongest in the 3 g/kg sodium ascorbate treatment group | recovery in arterial PO2 [1, 3]: strongest in the 3 g/kg sodium ascorbate treatment group | reduction in arterial blood lactate levels [1, 3]: greatest in the 3 g/kg sodium ascorbate treatment group | norepinephrine dose requirements ([1]; 1, 2 and 3 g/kg sodium ascorbate for 7 hours, n=2 each): reduction in norepinephrine dose requirements with increased sodium ascorbate doses | renal medullary oxygen levels [1, 4]: improvement | vasopressor requirements for attaining target blood pressure (75-80 mm Hg) [1, 4]: Total withdrawal of vasopressor requirements | adverse side-effects ([1]; during these pre-clinical studies): No adverse side-effects were observed | dose required to provide optimal benefits towards reversing the pathophysiological features of sepsis ([1]; intravenous, based on dose response analysis and Examples 1 and 2): at least 3 g/kg | body temperature ([2]; 60 g/day iv): decreases | oxalate excretion in the urine ([2]; 60 g/day iv): no evidence of increased oxalate excretion | requirement for vasopressor support ([2]; 60 g/day iv): decreases | serum sodium levels ([2]; 60 g/day iv): no evidence of increased oxalate excretion in the urine or increases in serum sodium levels | urinary output ([2]; 60 g/day iv): increases | safety concern signal ([2]; sodium ascorbate 30 g over 1 hour then 30 g over 5 hours iv (60 g/day)): no safety concern signal
